Laboratory results: US20130296358A1, “3-SPIROCYCLIC PIPERIDINE DERIVATIVES AS GHRELIN RECEPTOR AGONISTS” (priority 2012, published 2013)

Tests used:
[1] = system: rat fundus; assay: Rat fundus contractility assay (EFS-induced contraction of muscle strips); conditions: for EC50: increase of EFS-induced contraction, mean of preparations from at least 3 animals; for Emax/% / Emax: relative to the response to ghrelin (100 nM), defined as 100%
Method: Male Sprague Dawley rats (180-250 g) were culled by cervical dislocation and the fundus was removed. Each fundus was placed on a Krebs Henseleit (KH) buffer soaked dissection dish and cut along the long curvature to form a flattened sheet that was pinned in each corner. Four adjacent longitudinal strips (10×3 mm) were cut and the mucosa removed by sharp dissection. Each muscle strip was mounted in a 10 ml organ bath containing oxygenated KH at 37° C. Each strip was connected to an isometric force transducer, calibrated initially using a 5 g weight. The signal (g tension) was amplified and responses recorded by a Powerlab data capture system, connected to a computer running Labchart software (version 5.0). Tissues were placed under 1 g tension for an equilibration period of 30 min or until the baseline tension had stabilised. Carbachol (CCh, 100 nM) was then administered to establish the maximum contractile response of each preparation. Tissues were washed thoroughly and left for 30 min to re-equilibrate. Next, the muscle strips underwent electrical field stimulation (EFS). Maximal EFS pulse trains of 12V, 5 Hz, 0.1 msec pulse width, for 2 sec every 60 sec were applied until consistent electrically-stimulated phasic contractions were recorded. The voltage was then reduced in 1V increments until a consistent submaximal (EC50-75) EFS response was observed. Ghrelin (100 nM) was administered and left until a maximum response was obtained. Tissues were then washed thoroughly and left for 30 min. Once the EFS-induced contraction had re-stabilised, cumulative additions (10 nM-10 μM) of each test compound were administered. Individual responses were calculated by determining the peak of the EFS-induced contraction minus the baseline. […] The mean EC50 value for compounds was generated from data obtained on stomach preparations from at least 3 different animals.

[2] = molecular target: T1, human recombinant ghrelin receptor (GHS-R1a) (Homo sapiens, UniProt Q92847); assay: Calcium assay, CHO-K1 cells expressing hGHS-R1a (Fluo-4); assay type: cell-based
T1 construct: host or cells: CHO-K1
T1 sequence (Q92847 whole entry): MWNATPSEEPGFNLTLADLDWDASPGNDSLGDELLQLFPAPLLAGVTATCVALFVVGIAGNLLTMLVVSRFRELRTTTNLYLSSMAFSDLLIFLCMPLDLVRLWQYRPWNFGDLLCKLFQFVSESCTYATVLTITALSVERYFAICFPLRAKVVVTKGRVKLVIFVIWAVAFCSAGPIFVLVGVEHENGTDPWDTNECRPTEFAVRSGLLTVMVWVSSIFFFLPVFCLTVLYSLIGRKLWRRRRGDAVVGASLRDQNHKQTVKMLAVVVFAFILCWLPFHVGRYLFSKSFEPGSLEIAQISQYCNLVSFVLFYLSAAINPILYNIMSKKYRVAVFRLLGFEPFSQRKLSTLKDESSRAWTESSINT
Method: (§1) Chinese hamster ovary (CHO-K1) cells expressing human recombinant ghrelin receptor (GHS-R1a) were purchased from Euroscreen (ES-410-C) and propagated in UltraCHO medium containing glutamine and supplemented with 1% heat inactivated foetal calf serum (FCS), 100 U/ml penicillin, 100 mg/l streptomycin and 0.8 g/l geneticin. Cells were sub-cultured twice a week with a 1:10 dilution. For passaging, cells were washed with 1× DPBS without calcium and magnesium, trypsinised for 10 min with 0.05% Trypsin/EDTA and resuspended in cell culture medium.
Cells were diluted to achieve 1×10^6 cells/ml, seeded in 384-well black clear bottom CellBind plates at 25000 cells/well (25u1) and incubated overnight at 37° C./5% CO2 Cells were expected to be 85-90% confluent on the day of assay (checked under the microscope) to ensure a high quality assay. Media was manually removed and 40 μl of loading solution containing probenecid and Fluo-4 no wash dye (a calcium indicator, Invitrogen F36206) were added to each well. After 30 min at 37° C. followed by another 30 min at RT, cpds were added to the wells. To generate a dose response up to 30 μM, 10 mM compound stocks in 100% (v/v) DMSO were firstly diluted in 50% (v/v) DMSO. Then, serial dilutions aimed at a full logarithmic dose responses (8 point) were performed in assay buffer [1×HBSS, 20 mM Hepes, 0.1% (w/v) BSA] to give 2.5% (v/v) DMSO and 5× final compound concentrations. The final assay DMSO concentration was 0.5% (v/v). After loading the cells with Fluo-4 containing solution, plates were read on a CeIlLux instrument (Perkin Elmer). A protocol set up to add 10 μl of 5× compound and to read the plate for 60sec after adding the compound at 17th sec was used. Fluorescence excitation took place at 494 nm and emission at 516 nm. EC50 values of agonists were calculated by fitting the percent stimulation over background [(Max-Min)/Min] using the nonlinear logistic function of the Prism 5 software (GraphPad, USA).

[3] = molecular target: T1, human recombinant ghrelin receptor (GHS-R1a); assay: cAMP assay (HTRF), CHO-hGHS-R1a cells; assay type: cell-based; conditions: relative to the ghrelin response (defined as 100%)
Method: as §1
The Homogeneous Time-Resolved Fluorescence (HTRF) cAMP dynamic 2 kit (Cisbio International, France) was used as follows. CHO-hGHS—R1a or CHO-rGHS—R1a cells were seeded in a volume of 25 μl culture media at 10,000 cells/well (400,000 cells/ml) in Greiner white 384-well high volume plates and incubated overnight (18-24 h) at 37° C./5% CO2. Then, media was removed and 6 μl assay buffer [HBSS, 10 mM Hepes, 0.2% (w/v) BSA, 1.7 mM IBMX, (pH7.4)] were added to the wells. To generate a dose response up to 30 μM, 10 mM compound stocks in 100% (v/v) DMSO were firstly diluted in 50% (v/v) DMSO followed by a further dilution into assay buffer. Then, 4 μl of 2.5× compound (dose response as 9 point log serial dilution in assay buffer from 30 μM as maximum concentration) were added to each well achieving a final DMSO assay concentration of 0.8% (v/v). 0.1 μM forskolin was added as positive control. After 30 min (rGHS—R1a cell line) or 60 min (hGHS—R1a cell line) incubation at 37° C./5% CO2, 5 μl of cAMP-d2 and 5 μl of anti-cAMP antibody-cryptate, (both made in lysis buffer), were added to the plate followed by 1 h incubation at RT. During this time, cAMP produced by the cells competed with cAMP-d2 for the anti-cAMP antibody-cryptate molecule. Then, the plate was read on the Pherastar instrument (BMG, Germany) at two different emission wavelengths ([…]). Increasing levels of endogenous cAMP produced by cells could be followed by a decrease of FRET fluorescent signal and viceversa. Values represented by a change in arbitrary fluorescence ratios (665/620) were converted into cAMP concentrations by using a standard curve, the reagents for which were supplied with the kit. EC50 values of agonists were calculated using the nonlinear logistic function of the Prism 5 software (GraphPad, USA). Emax were expressed as relative values of the ghrelin response, which was defined as 100%.

[4] = CHO-K1, relative to the Emax induced by MK-0677 (defined as 100%), read-out: hGHS-R1a Ca assay Emax/%

Structure (SMILES)	Emax [2, 4] [%]	Emax [3] [%]	other results
CC(C)N1CC(c2ccc(F)cc2)C2(CCCN(C(=O)[C@@H](COCc3ccccc3)NC(=O)C(C)(C)N)C2)C1=O (single isomer, unassigned) [Example 1.19]			EC50 [1]: 23 nM; Emax/% [1]: 124%
CC(C)(C)CN1CC(c2ccccc2)C2(CCCN(C(=O)[C@@H](COCc3ccccc3)NC(=O)C(C)(C)N)C2)C1=O (stereo partly drawn) [Example 1.75, 2-amino-N-((2R)-3-(benzyloxy)-1-(2-neopentyl-1-oxo-4-phenyl-2,7-diazaspiro[4.5]decan-7-yl)-1-oxopropan-2-yl)-2-methylpropanamide]	87	176	
CC(C)(N)C(=O)N[C@H](COCc1ccccc1)C(=O)N1CCC2(CC1)CN(S(C)(=O)=O)c1ccccc12 [MK-0677, reference compound]			Emax ([2]; compared with ghrelin): same Emax as ghrelin
CN1CC(c2ccc(F)cc2)C2(CCCN(C(=O)[C@@H](COCc3ccc(Cl)cc3)NC(=O)C(C)(C)N)C2)C1=O (single isomer, unassigned) [Example 1.57]	84	173	
CN1CC(c2ccc(Cl)cc2)C2(CCCN(C(=O)[C@@H](COCc3ccccc3)NC(=O)C(C)(C)N)C2)C1=O (single isomer, unassigned) [Example 1.8]	102	149	
Cc1ccc(COC[C@@H](NC(=O)C(C)(C)N)C(=O)N2CCCC3(C2)C(=O)N(C)CC3c2ccc(F)cc2)cc1 (stereo partly drawn) [Example 1.72, 2-amino-N-((2R)-1-(4-(4-fluorophenyl)-2-methyl-1-oxo-2,7-diazaspiro[4.5]decan-7-yl)-3-((4-methylbenzyl)oxy)-1-oxopropan-2-yl)-2-methylpropanamide]	110	147	
COc1ccc(C2CN(C)C(=O)C23CCCN(C(=O)[C@@H](COCc2ccccc2)NC(=O)C(C)(C)N)C3)cc1 (stereo partly drawn) [Example 1.74, 2-amino-N-((2R)-3-(benzyloxy)-1-(4-(4-methoxyphenyl)-2-methyl-1-oxo-2,7-diazaspiro[4.5]decan-7-yl)-1-oxopropan-2-yl)-2-methylpropanamide]	103	123	
CN1CN(c2ccccc2)C2(CCCN(C(=O)[C@@H](COCc3ccccc3)NC(=O)C(C)(C)N)C2)C1=O (single isomer, unassigned) [Example 1.61]	73	189	
CN1CC(c2ccccc2)C2(CCCN(C(=O)[C@@H](COCc3ccc(F)cc3)NC(=O)C(C)(C)N)C2)C1=O (single isomer, unassigned) [Example 7.0, 2-Amino-N—[(R)-1-(4-fluoro-benzyloxymethyl)-2-(4S,5R)-2-methyl-1-oxo-4-phenyl-2,7-diaza-spiro[4.5]clec-7-yl)-2-oxo-ethyl]-2-methyl-propionamide or 2-Amino-N—[(R)-1-(4-fluoro-benzyloxymethyl)-2-(4R,5S)-2-methyl-1-oxo-4-phenyl-2,7-diaza-spiro[4.5]clec-7-yl)-2-oxo-ethyl]-2-methyl-propionamide]	83	153	
CN1C(=O)C2(CCCN(C(=O)[C@@H](COCc3ccccc3)NC(=O)C(C)(C)N)C2)C1c1ccccc1 (single isomer, unassigned) [Example 2.0(iii)]			EC50 [1]: 70 nM; Emax/% [1]: 70%
CC(C)(N)C(=O)N[C@H](COCc1ccccc1)C(=O)N1CCCC2(C1)C(=O)NCC2c1ccccc1 (single isomer, unassigned) [Example 1.4]	100		hGHS-R1a cAMP assay Emax/% [3]: 127%
CN1CC(c2ccccc2)C2(CCCN(C(=O)[C@@H](COCc3ccccc3)NC(=O)C(C)(C)N)CC2)C1=O (single isomer, unassigned) [Example 9.0(iv)]	96	127	
Cc1ccc(C2CN(C)C(=O)C23CCCN(C(=O)[C@@H](COCc2ccccc2)NC(=O)C(C)(C)N)C3)cc1 (single isomer, unassigned) [Example 1.53]	89	212	
CN1CC(c2ccccc2)C2(CCCN(C(=O)[C@@H](COCc3ccccc3)NC(=O)C(C)(N)C(F)(F)F)C2)C1=O (stereo partly drawn) [Example 1.73, 2-amino-N-((2R)-3-(benzyloxy)-1-(2-methyl-1-oxo-4-phenyl-2,7-diazaspiro[4.5]decan-7-yl)-1-oxopropan-2-yl)-3,3,3-trifluoro-2-methylpropanamide]	79	1	
CN1CC(c2ccccc2)C2(CCCN(C(=O)[C@@H](COCC3CCCCC3)NC(=O)C(C)(C)N)C2)C1=O (single isomer, unassigned) [Example 1.60]	98	171	
CC(C)N1CC(c2ccc(F)cc2)C2(CCCN(C(=O)[C@@H](COCc3ccccc3)NC(=O)C(C)(C)N)C2)C1=O (single isomer, unassigned) [Example 1.18]			Emax ([1]; Rattus norvegicus): 117%; EC50 [1]: 148 nM
CN1CC(c2ccccc2)C2(CCCN(C(=O)[C@@H](CCCc3ccccc3)NC(=O)C(C)(C)N)C2)C1=O (single isomer, unassigned) [Example 1.33]			EC50 [1]: 84 nM; Emax/% [1]: 131%
CC(C)N1CC(c2ccccc2)C2(CCCN(C(=O)[C@@H](Cc3c[nH]c4ccccc34)NC(=O)C(C)(C)N)C2)C1=O (single isomer, unassigned) [Example 3.0(ii)]			EC50 ([1]; Rattus norvegicus): 15 nM; Emax ([1]; Rattus norvegicus): 85%
CC(C)N1CC(c2ccccc2)C2(CCCN(C(=O)[C@@H](COCc3ccccc3)NC(=O)C(C)(C)N)C2)C1=O (single isomer, unassigned) [Example 1.6]			EC50 [1]: 373 nM; Emax/% [1]: 70%
CC(C)(N)C(=O)N[C@H](COCc1ccccc1)C(=O)N1CCCC2(C1)C(=O)NCC2c1ccccc1 (single isomer, unassigned) [Example 1.49]			hGHS-R1a cAMP assay Emax/% [3]: 88%
